Test results taken from patent publication US20030176390A1, “Methods of treating insulin resistance syndrome and diabetes” (priority 2001, published 2003).

How the values were obtained:
rat adipocytes = assay: In vitro lipolysis assay (antilipolytic activity in rat adipocytes); format: cell-based; details: Rattus norvegicus, Adipocyte, 1 h; norepinephrine-stimulated lipolysis, glycerol assayed, 60 min; read-out: Lipo ec50
Protocol: Determination of Antilipolytic Activity in Rat Adipocytes
Isolation of Adipocytes from Epididymal Fat Pads
Adipose tissue is removed from anesthetized rats and rinsed twice in incubation medium (2.09 g sodium bicarbonate and 0.04 g EDTA, disodium salt, in 1 L Krebs buffer). Each rat (300-350 g) yields approximately 4 mL of adipose tissue. The adipose tissue (35 mL) is cut into small pieces with scissors and washed with incubation medium (50 mL). The mixture is poured into the barrel of a 50 mL syringe to which is attached a short piece of clamped tubing instead of a needle. The aqueous phase is allowed to drain. A second wash with incubation medium is passed through the syringe. The tissue is added to 50 mL of collagenase solution (collagenase (90 mg), bovine serum albumin (BSA) (500 mg), and 0.1 M calcium chloride solution (1 mL), in incubation medium (50 mL)) in a 1 L bottle. The mixture is shaken in an environmental at 37° C. for about 60 minutes under an atmosphere of 95% oxygen/5% carbon dioxide to effect digestion of the tissue. The dispersed cells are poured through 2 layers of cheese cloth into a 100 mL plastic beaker. The undigested clumps in the cloth are rinsed once with incubation medium (20 mL). The cells in the beaker are centrifuged in 2 plastic tubes for 30 seconds at room temperature at 300 rpm. The aqueous phase is aspirated from beneath the loosely packed layer of floating fat cells and discarded. The adipocytes are gently poured into a 250 mL plastic beaker containing 100 mL of rinse solution (1 g BSA per 100 mL incubation medium). After gentle stirring the centrifugation step is repeated. Another wash with rinse solution follows. The cells are pooled and their volume is estimated with a graduated cylinder. The adipocytes are diluted in twice their volume of assay buffer (incubation medium (120 mL), BSA (1.2 g), pyruvic acid (13 mg)).
The assay is performed in 20 mL plastic scintillation vials and the total assay volume is 4.2 mL. Assay buffer (2.5 mL), diluted adipocytes (1.5 mL), and a solution of the compound to be tested (12.3 μL) adenosine agonist (12.3 μl; varying concentration) is incubated in the environmental shaker for 15 minutes, then the reaction is started with norepinephrine solution (41.2 μL) (10 nM, in a carrier solution containing water (100 mL), BSA (4 mg), and 0.1 M EDTA (20 μL))and adenosine deaminase (1 μg/mL, 41.2 μl). After sixty minutes in the shaker the reaction is terminated by putting the vials on ice. […] The hard lipid layer is removed by aspiration and the aqueous layer is assayed for glycerol (400 μl of sample). The positive control is done in the absence of any adenosine agonist, substituting water in place of the solution to be tested.

In the case of Cl.Cl.OC[C@H]1C[C@@H](n2cnc3c(N[C@H]4CCNC4)ncnc32)[C@H](O)[C@@H]1O [Example 26, (1R,2S,3R,5R)-5-hydroxymethyl-3-[6-((3S)-pyrrolidin-3-ylamino)-purin-9-yl]cyclopentane-1,2-diol dihydrochloride], the EC50 (rat adipocytes) is reported as 0.178 µM and the melting point is reported as 160 °C (dec.).

With OC[C@H]1C[C@@H](n2cnc3c(N[C@H]4CCN(c5ccc(Cl)cn5)C4)ncnc32)[C@H](O)[C@@H]1O [Example 33, (1R,2S,3R,5R)-3-[6-[1-(5-chloropyridin-2-yl)pyrrolidin-3(S)-ylamino]-purin-9-yl]-5-hydroxymethylcyclopentane-1,2-diol] the EC50 (rat adipocytes) was 0.0042 µM and the melting point was 118 to 121 °C.

For CC[C@H](C)NC(=O)[C@H]1C[C@@H](n2cnc3c(N[C@H]4CCN(c5ccc(C(F)(F)F)cn5)C4)ncnc32)[C@H](O)[C@@H]1O [Example 61, (1S,2R,3S,4R)-2,3-dihydroxy-4-{6-[1-(5-trifluoromethyl-pyridin-2-yl)-pyrrolidin-3(S)-ylamino]-purin-9-yl}-cyclopentanecarboxylic acid-1(S)-methylpropylamide], the EC50 (rat adipocytes) was 0.018 µM and the melting point was 215 °C (dec.).

For N#Cc1ccc(N2CC[C@H](Nc3ncnc4c3ncn4[C@@H]3C[C@H](CO)[C@@H](O)[C@H]3O)C2)cc1 [Example 40, 4-[3(S)-[9-((1R,2S,3R,5R)-1,2-dihydroxy-5-hydroxymethylcyclopent-3-yl)-9H-purin-6-ylamino]pyrrolidin-1-yl]benzonitrile], the EC50 (rat adipocytes) was 0.0105 µM and the melting point was 140 °C.

With COC[C@H]1C[C@@H](n2cnc3c(N[C@H]4CCN(c5ccc(Cl)nn5)C4)ncnc32)[C@H](O)[C@@H]1O [Example 51, (1R,2S,3R,5R)-3-[6-[1-(6-chloropyridazin-3-yl)pyrrolidin-3(S)-ylamino]-purin-9-yl]-5-methoxymethylcyclopentane-1,2-diol] the EC50 (rat adipocytes) was 0.0186 µM and the melting point was 122 to 124 °C.

OC[C@H]1C[C@@H](n2cnc3c(N[C@H]4CCN(c5ccc(Br)cn5)C4)ncnc32)[C@H](O)[C@@H]1O [Example 32, (1R,2S,3R,5R)-3-[6-[1-(5-bromopyridin-2-yl)pyrrolidin-3(S)-ylamino]-purin-9-yl]-5-hydroxymethylcyclopentane-1,2-diol] gave an EC50 (rat adipocytes) of 0.008 µM and a melting point of 169 to 171 °C.

In the case of C[C@H]1C[C@@H](n2cnc3c(N[C@H]4CCN(c5ccc(C(F)(F)F)cn5)C4)ncnc32)[C@H](O)[C@@H]1O [Example 31, (1R,2S,3R,5S)-5-methyl-3-[6-[1-(5-trifluoromethylpyridin-2-yl)pyrrolidin-3(S)-ylamino]-purin-9-yl]cyclopentane-1,2-diol], the EC50 (rat adipocytes) is reported as 0.247 µM and the melting point is reported as 114 to 116 °C.

OC[C@H]1C[C@@H](n2cnc3c(N[C@H]4CCN(c5ccccn5)C4)ncnc32)[C@H](O)[C@@H]1O [Example 35, (1R,2S,3R,5R)-5-hydroxymethyl-3-[6-[1-(pyridin-2-yl)pyrrolidin-3(S)-ylamino]-purin-9-yl]cyclopentane-1,2-diol] gave an EC50 (rat adipocytes) of 0.048 µM and a melting point of 110 to 112 °C.

OC[C@H]1C[C@@H](n2cnc3c(N[C@H]4CCN(c5cc(C(F)(F)F)ccn5)C4)ncnc32)[C@H](O)[C@@H]1O [Example 34, (1R,2S,3R,5R)-5-hydroxymethyl-3-[6-[1-(4-trifluoromethylpyridin-2-yl)pyrrolidin-3(S)-ylamino]-purin-9-yl]cyclopentane-1,2-diol] gave an EC50 (rat adipocytes) of 0.0033 µM and a melting point of 135 to 137 °C.

Compound OC[C@H]1C[C@@H](n2cnc3c(N[C@H]4CCN(c5ccc(C(F)(F)F)cn5)C4)ncnc32)[C@H](O)[C@@H]1O [Example 29, (1R,2S,3R,5R)-5-hydroxymethyl-3-[6-[1-(5-trifluoromethylpyridin-2-yl)pyrrolidin-3(S)-ylamino]-purin-9-yl]cyclopentane-1,2-diol] has an EC50 (rat adipocytes) of 0.00357 µM and a melting point of 110 to 111 °C.
